Assay results reported in patent US11617745B2, “Compositions and methods for generating hair cells by downregulating FOXO” (Frequency Therapeutics, Inc., priority 2018, dated 2023).
“Also recorded” adds a separate entry of the source.

System: cochlear Lgr5+ progenitor cells
Test: Expansion of Lgr5 cells in 3D culture, Lgr5-EGFP cells counted by flow cytometry
Format: cell-based, mice
Experimental: Neonatal Lgr5-EGFP-IRES-Cre-ER mice (The Jackson Laboratory, strain 8875) were used to analyze the effects of small molecules on cochlear stem cell expansion (see Barker et al., Nature 449, 1003-7 (2007). This strain allowed for visualization and quantification of EGFP cells.
All animal studies were conducted under an approved institutional protocol per National Institutes of Health guidelines. Using neonatal animals, cochleae were dissected and the organ of Corti (sensory epithelium) was separated from the stria vascularis (ion transport epithelium) and the modiolus (nerve tissue). Epithelia were then collected and treated with TrypLE for 15-20 minutes to obtain single cells. The cells were then filtered ([…]) and suspended in a Matrigel (Corning) dome for 3D culture seeded at 0.5 cochlea per well.
Expansion of Lgr5 Cells: Cells were cultured in a 3D system and bathed in a serum free 1:1 mixture of DMEM and F12, supplemented with Glutamax (GIBCO), N2, B27 (Invitrogen), EGF (50 ng/mL; Chemicon), bFGF (50 ng/mL; Chemicon), IGF-1 (50 ng/mL; Chemicon), and small molecules for seven days. Media was changed every other day. Treatments were run in triplicate or quadruplicate.
Quantification of Cell Proliferation: Lgr5 cells were quantified after 7-10 days. Cell colonies were dissociated into single cells using TrypLE. The cells were then stained with propidium iodide (PI) and analyzed using a flow cytometer to count Lgr5-EGFP cells. The percentage of viable Lgr5 cells was plotted against the concentration in GraphPad Prism.

SMILES: CCn1cc(C(=O)O)c(=O)c2c(N)c(F)c(NC3CCCCC3)cc21 [AS1842856]
- expansion of cochlear Lgr5+ progenitor cells in culture (AS1842856 425 nM, background of EFI): elicits the expansion
- enrichment of Lgr5 cells according to percentage (AS1842856 (425 nM) combined with VPA (1 mM), background of EFI): enriched according to percentage
- Lgr5-GFP colony formation (images of Lgr5+ cell culture) (EFI-AS1842856 alone): promotes Lgr5-GFP colony formation
- Lgr5-GFP colony enrichment (less Lgr5-negative cells in culture) (EFI-AS1842856 with VPA added): enriched when VPA is added
- concentration dependence of Lgr5+ cell growth, enrichment and expansion of cochlear progenitor cells (background of EFI, range of concentrations): enhances expansion of cochlear progenitor cells concentration-dependent manner; also recorded: concentration-dependent effects
